Results on one molecule are retold here after patent US20260109690A1, “HDAC6 INHIBITORS AND METHOD OF THEIR USE” (Baerenkraft Therapeutics, LLC., priority 2024, published 2026).

pIC50: −log10 of the molar value.

One test concerns the target T1, HDAC6 (Homo sapiens, UniProt Q9UBN7).
T1 sequence (Q9UBN7 1-1215): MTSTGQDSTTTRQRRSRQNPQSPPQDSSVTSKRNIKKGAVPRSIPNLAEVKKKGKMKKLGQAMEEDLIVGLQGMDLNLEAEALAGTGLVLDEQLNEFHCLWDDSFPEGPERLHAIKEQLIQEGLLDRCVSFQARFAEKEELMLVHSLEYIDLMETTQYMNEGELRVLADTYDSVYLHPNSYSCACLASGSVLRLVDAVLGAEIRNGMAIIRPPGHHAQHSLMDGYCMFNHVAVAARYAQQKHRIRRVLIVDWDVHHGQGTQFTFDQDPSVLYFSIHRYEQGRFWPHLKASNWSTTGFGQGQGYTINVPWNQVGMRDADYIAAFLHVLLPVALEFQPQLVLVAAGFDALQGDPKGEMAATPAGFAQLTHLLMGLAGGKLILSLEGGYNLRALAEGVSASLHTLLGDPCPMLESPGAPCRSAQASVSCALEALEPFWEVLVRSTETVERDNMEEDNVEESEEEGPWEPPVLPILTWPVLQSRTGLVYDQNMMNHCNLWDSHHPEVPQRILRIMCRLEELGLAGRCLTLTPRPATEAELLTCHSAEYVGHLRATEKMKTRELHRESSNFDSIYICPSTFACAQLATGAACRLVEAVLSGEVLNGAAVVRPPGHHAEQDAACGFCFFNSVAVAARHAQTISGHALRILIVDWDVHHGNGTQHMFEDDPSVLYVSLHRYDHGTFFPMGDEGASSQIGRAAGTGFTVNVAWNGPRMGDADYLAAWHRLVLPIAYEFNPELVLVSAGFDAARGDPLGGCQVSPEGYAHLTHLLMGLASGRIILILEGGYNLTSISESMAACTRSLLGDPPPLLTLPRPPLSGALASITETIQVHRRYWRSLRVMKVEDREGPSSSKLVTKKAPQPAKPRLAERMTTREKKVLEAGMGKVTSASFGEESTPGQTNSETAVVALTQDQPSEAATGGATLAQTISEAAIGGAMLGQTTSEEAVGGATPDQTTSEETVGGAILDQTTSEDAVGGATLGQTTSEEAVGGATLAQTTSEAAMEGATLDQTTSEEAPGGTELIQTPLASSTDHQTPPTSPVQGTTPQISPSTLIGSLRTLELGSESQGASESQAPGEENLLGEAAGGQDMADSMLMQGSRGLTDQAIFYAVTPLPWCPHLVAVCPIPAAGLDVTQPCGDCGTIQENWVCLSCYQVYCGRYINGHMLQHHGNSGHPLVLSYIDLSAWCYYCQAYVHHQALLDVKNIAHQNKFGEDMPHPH
Briefly: Biochemical HDAC6 inhibitory activity assay. The conditions noted are these: read-out: HDAC6 IC50.

The target in another test is HDAC1 (Homo sapiens, UniProt Q13547). Briefly: HDAC selectivity panel: HDAC1. In kind it is biochemical.
Sequence of HDAC1 (Q13547 whole entry, species assumed): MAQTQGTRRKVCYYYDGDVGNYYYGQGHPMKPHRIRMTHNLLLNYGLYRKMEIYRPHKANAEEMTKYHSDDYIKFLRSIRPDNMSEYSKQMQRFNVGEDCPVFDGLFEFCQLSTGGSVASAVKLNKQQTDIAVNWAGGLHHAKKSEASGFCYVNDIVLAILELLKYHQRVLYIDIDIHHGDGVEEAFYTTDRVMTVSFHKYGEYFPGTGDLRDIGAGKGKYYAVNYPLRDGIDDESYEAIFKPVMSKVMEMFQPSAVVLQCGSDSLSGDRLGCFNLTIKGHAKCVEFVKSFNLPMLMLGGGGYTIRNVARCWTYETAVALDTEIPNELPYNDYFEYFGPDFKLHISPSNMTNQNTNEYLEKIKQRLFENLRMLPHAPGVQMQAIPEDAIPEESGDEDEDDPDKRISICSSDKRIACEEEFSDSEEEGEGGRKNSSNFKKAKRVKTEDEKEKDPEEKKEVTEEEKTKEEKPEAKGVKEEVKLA
Another test concerns the target HDAC3 (Homo sapiens, UniProt O15379). Briefly: HDAC selectivity panel: HDAC3. In kind it is biochemical.
The target of a further test is T2, HDAC8 (Homo sapiens, UniProt Q9BY41).
T2 sequence (Q9BY41 1-377): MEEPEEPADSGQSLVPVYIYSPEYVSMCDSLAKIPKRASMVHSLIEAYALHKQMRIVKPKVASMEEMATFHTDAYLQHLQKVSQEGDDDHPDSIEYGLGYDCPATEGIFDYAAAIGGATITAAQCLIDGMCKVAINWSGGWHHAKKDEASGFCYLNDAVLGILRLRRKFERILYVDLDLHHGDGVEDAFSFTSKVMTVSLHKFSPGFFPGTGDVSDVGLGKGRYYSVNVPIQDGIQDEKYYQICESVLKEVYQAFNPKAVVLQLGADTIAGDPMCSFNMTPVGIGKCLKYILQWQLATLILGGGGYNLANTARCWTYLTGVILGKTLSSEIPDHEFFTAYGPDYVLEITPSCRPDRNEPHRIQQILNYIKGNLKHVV
Briefly: HDAC selectivity panel: HDAC8. It is filed as biochemical.

Another test concerns the target T3, HDAC10 (Homo sapiens, UniProt Q969S8).
T3 sequence (Q969S8 1-669): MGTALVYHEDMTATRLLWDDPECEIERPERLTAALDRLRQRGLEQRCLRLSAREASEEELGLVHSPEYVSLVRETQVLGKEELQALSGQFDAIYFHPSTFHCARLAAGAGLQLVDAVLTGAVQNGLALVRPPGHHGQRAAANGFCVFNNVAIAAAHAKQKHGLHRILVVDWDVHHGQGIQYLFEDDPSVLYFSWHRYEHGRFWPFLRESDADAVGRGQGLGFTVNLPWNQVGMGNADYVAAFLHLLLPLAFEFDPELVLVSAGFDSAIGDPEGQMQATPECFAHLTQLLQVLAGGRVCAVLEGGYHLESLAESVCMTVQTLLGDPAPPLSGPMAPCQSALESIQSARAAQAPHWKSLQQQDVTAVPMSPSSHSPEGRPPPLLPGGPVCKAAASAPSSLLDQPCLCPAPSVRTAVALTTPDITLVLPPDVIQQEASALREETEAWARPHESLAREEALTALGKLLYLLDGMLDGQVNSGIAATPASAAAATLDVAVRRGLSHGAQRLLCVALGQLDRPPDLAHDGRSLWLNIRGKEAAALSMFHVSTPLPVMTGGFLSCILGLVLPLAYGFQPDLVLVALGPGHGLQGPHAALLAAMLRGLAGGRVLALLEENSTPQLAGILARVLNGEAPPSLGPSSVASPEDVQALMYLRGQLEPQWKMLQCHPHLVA
In words: HDAC selectivity panel: HDAC10. It is filed as biochemical.

A further test has as its target T4, HDAC11 (Homo sapiens, UniProt Q96DB2).
T4 sequence (Q96DB2 1-347): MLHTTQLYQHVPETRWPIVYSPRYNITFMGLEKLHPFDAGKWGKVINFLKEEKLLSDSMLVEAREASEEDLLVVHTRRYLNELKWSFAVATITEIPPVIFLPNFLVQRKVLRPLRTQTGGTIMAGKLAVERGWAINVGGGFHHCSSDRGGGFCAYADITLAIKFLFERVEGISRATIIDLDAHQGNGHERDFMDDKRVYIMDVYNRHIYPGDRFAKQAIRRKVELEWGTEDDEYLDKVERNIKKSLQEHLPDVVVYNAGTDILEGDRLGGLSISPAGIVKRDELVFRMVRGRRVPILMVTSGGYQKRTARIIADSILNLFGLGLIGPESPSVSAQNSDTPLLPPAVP
In words: HDAC selectivity panel: HDAC11. It is filed as biochemical.

Sequence of HDAC3 (O15379 whole entry, species assumed): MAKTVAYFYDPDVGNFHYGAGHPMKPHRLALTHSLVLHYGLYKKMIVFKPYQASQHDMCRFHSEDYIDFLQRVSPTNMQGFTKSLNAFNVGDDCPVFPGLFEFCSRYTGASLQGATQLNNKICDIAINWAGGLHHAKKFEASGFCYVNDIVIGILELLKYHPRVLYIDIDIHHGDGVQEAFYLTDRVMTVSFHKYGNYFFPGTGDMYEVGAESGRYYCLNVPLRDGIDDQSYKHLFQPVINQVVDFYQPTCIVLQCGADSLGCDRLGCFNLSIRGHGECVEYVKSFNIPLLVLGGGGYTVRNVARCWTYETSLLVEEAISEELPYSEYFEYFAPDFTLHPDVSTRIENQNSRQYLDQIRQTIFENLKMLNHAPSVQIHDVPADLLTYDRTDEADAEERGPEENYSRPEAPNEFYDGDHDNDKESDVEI
Sequence of HDAC3 (Q9Y618 395-489 partner limits assumed, species assumed): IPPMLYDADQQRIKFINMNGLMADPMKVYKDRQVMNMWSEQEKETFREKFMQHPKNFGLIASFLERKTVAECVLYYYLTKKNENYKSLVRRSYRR

Turning to `CC1CN(C(=O)c2ccc(Nc3nccc(-c4ccc(C(=O)NO)cc4)n3)cc2F)CCO1` (stereo not drawn) [Compound I-5, 4-(2-((3-fluoro-4-(2-methylmorpholine-4-carbonyl)phenyl)amino)pyrimidin-4-yl)-N-hydroxybenzamide], the pIC50 was greater than 6.00 on HDAC6; 5.79 at HDAC1; 5.87 against HDAC3; 6.79 at HDAC8; 7.13 on HDAC10; 6.11 against HDAC11.

As a reminder, the pIC50 is the IC50 on a negative log10 scale, so that one unit is a factor of ten.
